# Calls of active or inactive are those of the source. The rule behind the calls is not given here.
# Assays:
# [1] = test system: MCF7; test: Cytotoxicity against human MCF7 cells assessed as cell viability at 30 uM incubated for 72 hrs by SRB assay relative to control; type: functional; conditions: read-out: Activity
# [2] = Toxicity in wild type C57BL/6J mouse assessed as effect on bolus fecalis count at 10 to 50 mg/kg, ip administered daily for 7 days and measured daily; type: organism-based; conditions: in vivo, 168 h, dose 10-50 mg/kg, time 7 day
# [3] = test system: Hs-578T; test: Antitumor activity against human Hs-578T cells implanted in chick eggs assessed as regression in tumors' perimeter at 2 times IC50 administered starting from day 13 and measured 17 days post embryo development by stereomicroscopic analysis relative to control; type: functional; conditions: time 5 day
# [4] = Toxicity in wild type C57BL/6J mouse assessed as transfer to reaction at 10 to 50 mg/kg, ip administered daily for 7 days and measured daily; type: organism-based; conditions: in vivo, 168 h, dose 10-50 mg/kg, time 7 day
# [5] = test system: Hs-578T; test: Cytotoxicity against human Hs-578T cells assessed as reduction in cell proliferation at 0.5 times IC50 measured after 24 hrs by BrdU incorporation assay relative to control; type: functional; set-up: scale not given: the % may be the effect or the level left
# [6] = test system: Hs-578T; test: Induction of apoptosis in human Hs-578T cells assessed as increase in caspase-8 protein expression at IC50 measured after 48 hrs by Western blot analysis; type: functional, cell-based
# [7] = test system: Hs-578T; test: Cytotoxicity against human Hs-578T cells assessed as reduction in cell proliferation at IC50 measured after 24 hrs by BrdU incorporation assay relative to control; type: functional; set-up: scale not given: the % may be the effect or the level left
# [8] = test system: Hs-578T; test: Cytotoxicity against human Hs-578T cells assessed as cell viability at 30 uM incubated for 72 hrs by SRB assay relative to control; type: functional; conditions: read-out: Activity
# [9] = test system: Hs-578T; test: Induction of apoptosis in human Hs-578T cells assessed as increase in cleaved PARP level at IC50 measured after 48 hrs by Western blot analysis; type: functional, cell-based
# [10] = Toxicity in wild type C57BL/6J mouse assessed as effect on eyelid reflexes at 10 to 50 mg/kg, ip administered daily for 7 days and measured daily; type: organism-based; conditions: in vivo, 168 h, dose 10-50 mg/kg, time 7 day
# [11] = Toxicity in wild type C57BL/6J mouse assessed as tremor at 10 to 50 mg/kg, ip administered daily for 7 days and measured daily; type: organism-based; conditions: in vivo, 168 h, dose 10-50 mg/kg, time 7 day
# [12] = test system: Hs-578T; test: Induction of apoptosis in human Hs-578T cells assessed as increase in caspase-9 protein expression at IC50 measured after 24 to 48 hrs by Western blot analysis; type: functional, cell-based; conditions: time 24-48 hrs
# [13] = Toxicity in wild type C57BL/6J mouse assessed as effect on horizontal activity at 10 to 50 mg/kg, ip administered daily for 7 days and measured daily; type: organism-based; conditions: in vivo, 168 h, dose 10-50 mg/kg, time 7 day
# [14] = test system: Hs-578T; test: Induction of apoptosis in human Hs-578T cells assessed as increase in BAD protein expression at IC50 measured after 24 to 48 hrs by Western blot analysis; type: functional, cell-based; conditions: time 24-48 hrs
# [15] = Cytotoxicity against human MCF-10A cells assessed as inhibition of cell growth incubated for 72 hrs by SRB assay; type: toxicity, cell-based
smiles,measurement,setting,value
Brc1ccc2c(c1)-c1cc(-c3ccccc3)nc3c1C(N=CN3c1ccccc1)O2 (stereo not given),viability at 30 µM,[1],25.9%
same,Activity,[2],Non-Toxic
same,Activity,[3],12.4%
same,Activity,[4],Non-Toxic
same,Activity,[5],~8%
same,Activity,[6],inactive
same,Activity,[7],~30%
same,viability at 30 µM,[8],32.6%
same,Activity,[9],Active
same,Activity,[10],Non-Toxic
same,Activity,[11],Non-Toxic
same,Activity,[12],Active
same,Activity,[13],Non-Toxic
same,Activity,[14],Active
same,IC50 at 72 h,[15],36.8 µM

# Source: ChEMBL document CHEMBL5385961, “In vitro and in vivo evaluation of novel chromeno[2,3-d]pyrimidinones as therapeutic agents for triple negative breast cancer” (RSC Med Chem, 2024)
